These results are taken from ChEMBL document CHEMBL5244269, “Improving metabolic stability and removing aldehyde oxidase liability in a 5-azaquinazoline series of IRAK4 inhibitors” (Bioorg Med Chem, 2020).

Data set [1] addresses T1, Interleukin-1 receptor-associated kinase 4 (Homo sapiens, UniProt Q9NWZ3).
T1 sequence (Q9NWZ3 whole entry): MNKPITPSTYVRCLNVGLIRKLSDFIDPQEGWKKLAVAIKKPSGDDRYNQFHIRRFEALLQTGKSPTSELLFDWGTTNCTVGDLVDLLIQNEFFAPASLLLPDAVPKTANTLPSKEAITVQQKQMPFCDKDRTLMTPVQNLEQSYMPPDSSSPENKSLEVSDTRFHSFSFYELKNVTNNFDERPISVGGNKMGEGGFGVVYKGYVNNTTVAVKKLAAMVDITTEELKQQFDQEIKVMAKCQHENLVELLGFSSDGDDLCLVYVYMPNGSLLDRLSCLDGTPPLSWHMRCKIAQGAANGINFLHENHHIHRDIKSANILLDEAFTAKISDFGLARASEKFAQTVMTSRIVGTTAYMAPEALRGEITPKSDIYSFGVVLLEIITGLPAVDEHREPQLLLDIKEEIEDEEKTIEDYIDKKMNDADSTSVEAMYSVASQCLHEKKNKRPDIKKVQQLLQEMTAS
Briefly: Inhibition of IRAK4 (unknown origin) in presence of ATP by enzymatic assay.

Data set [2] concerns the target T1, Interleukin-1 receptor-associated kinase 4. The data set can be described thus: Inhibition of IRAK4 (unknown origin) phosphorylation by cell based assay.
A short description of data set [3]: Lipophilicity, LogD at pH 7.4 of the compound by shake flask method. It is filed as physicochemical. As to conditions: buffer.
Data set [4] can be described thus: Metabolic stability in human liver microsomes assessed as intrinsic clearance. Type of data set: ADME, Microsome. As to conditions: read-out: CLH.
Data set [5] is described as follows: Metabolic stability in human hepatocytes assessed as intrinsic clearance measured per 10^6 cells. Type of data set: ADME, cell-based, Hepatocyte. As to conditions: read-out: CLH.
Data set [6] is described as follows: Apparent permeability across apical to basolateral side in human Caco-2 cells measured for 360 mins by liquid scintillation counting based analysis. It is filed as ADME, cell-based.
Data set [7] is described as follows: Efflux ratio of apparent permeability basolateral to apical side over apical to basolateral side in human Caco-2 cells measured for 360 mins by liquid scintillation counting based analysis. It is filed as ADME, cell-based. Background: Passage across Caco-2 layers is used to estimate intestinal permeability.
A short description of data set [8]: Metabolic stability in human cytosol assessed as intrinsic clearance. It is filed as ADME, subcellular.
Data set [9] is described as follows: Clearance in human. It is filed as ADME.
The nature of data set [10]: Clearance in human assessed as liver blood flow. Type of data set: ADME, tissue-based.
For data set [11], the target named is T2, Receptor-type tyrosine-protein kinase FLT3 (Homo sapiens, UniProt P36888).
T2 sequence (P36888 whole entry): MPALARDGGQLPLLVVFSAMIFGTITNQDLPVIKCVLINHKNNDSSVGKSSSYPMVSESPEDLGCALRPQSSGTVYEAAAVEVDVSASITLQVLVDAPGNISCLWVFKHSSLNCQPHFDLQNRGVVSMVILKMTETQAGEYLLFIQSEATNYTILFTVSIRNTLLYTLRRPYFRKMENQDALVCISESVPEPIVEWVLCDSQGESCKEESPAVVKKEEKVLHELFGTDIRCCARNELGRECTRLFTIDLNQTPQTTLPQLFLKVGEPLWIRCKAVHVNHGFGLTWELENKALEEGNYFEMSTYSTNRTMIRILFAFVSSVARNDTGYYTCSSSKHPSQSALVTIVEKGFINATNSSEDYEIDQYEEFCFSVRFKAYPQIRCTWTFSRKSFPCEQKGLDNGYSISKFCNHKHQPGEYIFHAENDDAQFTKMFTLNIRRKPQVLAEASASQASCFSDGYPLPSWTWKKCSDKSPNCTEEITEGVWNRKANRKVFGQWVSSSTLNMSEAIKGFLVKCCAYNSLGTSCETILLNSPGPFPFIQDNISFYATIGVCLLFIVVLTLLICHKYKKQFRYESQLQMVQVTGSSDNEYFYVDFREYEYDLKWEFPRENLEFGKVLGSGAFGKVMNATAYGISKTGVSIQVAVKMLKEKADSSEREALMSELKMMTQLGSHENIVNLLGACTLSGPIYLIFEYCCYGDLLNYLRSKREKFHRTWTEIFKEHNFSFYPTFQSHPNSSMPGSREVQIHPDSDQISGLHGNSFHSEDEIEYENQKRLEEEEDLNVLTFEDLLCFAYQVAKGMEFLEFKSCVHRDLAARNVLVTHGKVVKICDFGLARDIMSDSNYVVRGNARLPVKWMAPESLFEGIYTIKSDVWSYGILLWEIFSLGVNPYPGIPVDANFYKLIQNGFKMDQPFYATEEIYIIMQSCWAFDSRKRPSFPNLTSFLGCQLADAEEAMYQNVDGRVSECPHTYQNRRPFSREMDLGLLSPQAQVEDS
The data set can be described thus: Inhibition of FLT3 (unknown origin) in presence of 600 uM ATP.

For data set [12], the species on record is Homo sapiens. Briefly: Selectivity index, ratio of IC50 for inhibition of FLT3 (unknown origin) to IC50 for inhibition of IRAK4 (unknown origin).
Data set [13] deals with High affinity nerve growth factor receptor (Homo sapiens, UniProt P04629). Briefly: Inhibition of TRKA (unknown origin) in presence of 400 uM ATP.
Data set [14] concerns the target Interleukin-1 receptor-associated kinase 1 (Homo sapiens, UniProt P51617). The data set can be described thus: Inhibition of IRAK1 (unknown origin) in presence of 25 uM ATP.
Data set [15] addresses Tyrosine-protein kinase BTK (Homo sapiens, UniProt Q06187). Briefly: Inhibition of BTK (unknown origin) in presence of 25 uM ATP.
For data set [16], the target named is T3, Phosphatidylinositol 4,5-bisphosphate 3-kinase catalytic subunit delta isoform (Homo sapiens, UniProt O00329).
T3 sequence (O00329 whole entry): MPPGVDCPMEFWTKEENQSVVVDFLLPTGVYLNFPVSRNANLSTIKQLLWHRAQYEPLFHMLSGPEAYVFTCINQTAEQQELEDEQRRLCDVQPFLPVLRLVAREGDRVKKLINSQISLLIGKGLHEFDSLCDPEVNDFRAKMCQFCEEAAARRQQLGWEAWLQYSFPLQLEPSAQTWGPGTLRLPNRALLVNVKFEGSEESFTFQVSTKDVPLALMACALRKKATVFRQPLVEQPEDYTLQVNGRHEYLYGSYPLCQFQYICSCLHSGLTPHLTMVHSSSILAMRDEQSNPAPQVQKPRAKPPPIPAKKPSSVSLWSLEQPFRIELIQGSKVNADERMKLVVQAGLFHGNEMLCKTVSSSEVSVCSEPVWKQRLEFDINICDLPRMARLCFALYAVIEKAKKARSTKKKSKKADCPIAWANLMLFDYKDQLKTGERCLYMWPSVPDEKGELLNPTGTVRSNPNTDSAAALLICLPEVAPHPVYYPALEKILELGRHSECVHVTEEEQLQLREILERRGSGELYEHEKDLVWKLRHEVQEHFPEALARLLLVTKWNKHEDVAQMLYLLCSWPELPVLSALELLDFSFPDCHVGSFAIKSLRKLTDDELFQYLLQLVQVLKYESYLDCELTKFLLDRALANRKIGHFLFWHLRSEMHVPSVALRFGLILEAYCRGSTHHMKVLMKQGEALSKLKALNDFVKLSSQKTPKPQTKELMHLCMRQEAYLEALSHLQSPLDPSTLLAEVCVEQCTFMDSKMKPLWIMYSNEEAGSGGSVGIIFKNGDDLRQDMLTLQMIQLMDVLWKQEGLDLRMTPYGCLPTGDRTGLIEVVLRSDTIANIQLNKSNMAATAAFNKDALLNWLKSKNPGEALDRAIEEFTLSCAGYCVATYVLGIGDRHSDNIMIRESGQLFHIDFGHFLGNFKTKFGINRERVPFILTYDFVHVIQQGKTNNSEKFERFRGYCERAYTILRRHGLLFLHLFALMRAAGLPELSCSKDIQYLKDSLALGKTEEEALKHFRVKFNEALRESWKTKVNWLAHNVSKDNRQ
The data set can be described thus: Inhibition of PI3Kdelta (unknown origin) in presence of […] uM ATP.

The target of data set [17] is BDNF/NT-3 growth factors receptor (Homo sapiens, UniProt Q16620). The data set can be described thus: Inhibition of TRKB (unknown origin) in presence of 25 uM ATP.
The target of data set [18] is NT-3 growth factor receptor (Homo sapiens, UniProt Q16288). The data set can be described thus: Inhibition of TRKC (unknown origin) in presence of 50 uM ATP.
Data set [19] is filed under the species Homo sapiens. The data set can be described thus: Selectivity index, ratio of IC50 for inhibition of IRAK1 (unknown origin) to IC50 for inhibition of IRAK4 (unknown origin).
The species entered for data set [20] is Homo sapiens. The data set can be described thus: Selectivity index, ratio of IC50 for inhibition of BTK (unknown origin) to IC50 for inhibition of IRAK4 (unknown origin).
The species entered for data set [21] is Homo sapiens. Briefly: Selectivity index, ratio of IC50 for inhibition of PI3Kdelta (unknown origin) to IC50 for inhibition of IRAK4 (unknown origin).
The species named for data set [22] is Homo sapiens. The data set can be described thus: Selectivity index, ratio of IC50 for inhibition of TRKA (unknown origin) to IC50 for inhibition of IRAK4 (unknown origin).
For data set [23], the species on record is Homo sapiens. The data set can be described thus: Selectivity index, ratio of IC50 for inhibition of TRKB (unknown origin) to IC50 for inhibition of IRAK4 (unknown origin).
The species entered for data set [24] is Homo sapiens. The data set can be described thus: Selectivity index, ratio of IC50 for inhibition of TRKC (unknown origin) to IC50 for inhibition of IRAK4 (unknown origin).

SMILES strings stand for the structures.

Chain of High affinity nerve growth factor receptor (P04629 whole entry): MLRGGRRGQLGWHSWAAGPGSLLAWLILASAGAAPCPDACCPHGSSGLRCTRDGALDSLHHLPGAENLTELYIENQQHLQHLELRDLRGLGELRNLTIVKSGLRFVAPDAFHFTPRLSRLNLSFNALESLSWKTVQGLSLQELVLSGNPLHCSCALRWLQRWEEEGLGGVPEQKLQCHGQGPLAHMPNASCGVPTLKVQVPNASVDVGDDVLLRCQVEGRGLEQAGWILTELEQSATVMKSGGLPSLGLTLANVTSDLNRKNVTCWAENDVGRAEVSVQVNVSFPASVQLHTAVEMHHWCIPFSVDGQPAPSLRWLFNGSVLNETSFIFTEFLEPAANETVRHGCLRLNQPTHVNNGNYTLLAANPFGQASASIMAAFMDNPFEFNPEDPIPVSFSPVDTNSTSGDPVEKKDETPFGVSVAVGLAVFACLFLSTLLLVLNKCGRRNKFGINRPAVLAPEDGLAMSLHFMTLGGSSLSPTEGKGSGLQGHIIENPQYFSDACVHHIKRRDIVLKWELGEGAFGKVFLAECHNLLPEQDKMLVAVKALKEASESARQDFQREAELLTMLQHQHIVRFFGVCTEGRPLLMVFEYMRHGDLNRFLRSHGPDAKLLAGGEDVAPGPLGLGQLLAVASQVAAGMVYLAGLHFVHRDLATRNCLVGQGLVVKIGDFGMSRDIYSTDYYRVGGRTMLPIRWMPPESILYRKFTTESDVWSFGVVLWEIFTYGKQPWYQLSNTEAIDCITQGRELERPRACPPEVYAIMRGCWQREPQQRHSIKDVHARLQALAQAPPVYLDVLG
Chain of BDNF/NT-3 growth factors receptor (Q16620 whole entry): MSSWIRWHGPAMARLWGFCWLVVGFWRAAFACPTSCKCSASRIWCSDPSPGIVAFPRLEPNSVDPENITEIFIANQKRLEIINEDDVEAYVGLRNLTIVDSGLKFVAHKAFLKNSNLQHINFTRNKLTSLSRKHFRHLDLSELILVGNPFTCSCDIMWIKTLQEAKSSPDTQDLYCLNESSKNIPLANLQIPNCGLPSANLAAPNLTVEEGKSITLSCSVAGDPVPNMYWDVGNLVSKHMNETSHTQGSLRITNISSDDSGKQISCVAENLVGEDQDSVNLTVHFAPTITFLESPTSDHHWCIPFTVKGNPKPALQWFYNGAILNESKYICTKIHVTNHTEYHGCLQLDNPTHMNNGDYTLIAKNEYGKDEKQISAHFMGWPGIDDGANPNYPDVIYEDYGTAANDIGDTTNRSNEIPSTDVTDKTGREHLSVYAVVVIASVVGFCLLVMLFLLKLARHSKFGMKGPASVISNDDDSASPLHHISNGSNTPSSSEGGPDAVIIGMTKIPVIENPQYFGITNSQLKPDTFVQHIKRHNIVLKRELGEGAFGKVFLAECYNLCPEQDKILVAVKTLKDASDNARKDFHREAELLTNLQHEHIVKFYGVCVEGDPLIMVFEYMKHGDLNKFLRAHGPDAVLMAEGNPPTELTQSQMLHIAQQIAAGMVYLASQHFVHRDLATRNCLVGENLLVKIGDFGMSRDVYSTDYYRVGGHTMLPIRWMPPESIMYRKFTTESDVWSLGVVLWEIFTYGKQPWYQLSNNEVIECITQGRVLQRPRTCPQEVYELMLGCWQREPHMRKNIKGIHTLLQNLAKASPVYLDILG
Chain of Tyrosine-protein kinase BTK (Q06187 whole entry, canonical isoform): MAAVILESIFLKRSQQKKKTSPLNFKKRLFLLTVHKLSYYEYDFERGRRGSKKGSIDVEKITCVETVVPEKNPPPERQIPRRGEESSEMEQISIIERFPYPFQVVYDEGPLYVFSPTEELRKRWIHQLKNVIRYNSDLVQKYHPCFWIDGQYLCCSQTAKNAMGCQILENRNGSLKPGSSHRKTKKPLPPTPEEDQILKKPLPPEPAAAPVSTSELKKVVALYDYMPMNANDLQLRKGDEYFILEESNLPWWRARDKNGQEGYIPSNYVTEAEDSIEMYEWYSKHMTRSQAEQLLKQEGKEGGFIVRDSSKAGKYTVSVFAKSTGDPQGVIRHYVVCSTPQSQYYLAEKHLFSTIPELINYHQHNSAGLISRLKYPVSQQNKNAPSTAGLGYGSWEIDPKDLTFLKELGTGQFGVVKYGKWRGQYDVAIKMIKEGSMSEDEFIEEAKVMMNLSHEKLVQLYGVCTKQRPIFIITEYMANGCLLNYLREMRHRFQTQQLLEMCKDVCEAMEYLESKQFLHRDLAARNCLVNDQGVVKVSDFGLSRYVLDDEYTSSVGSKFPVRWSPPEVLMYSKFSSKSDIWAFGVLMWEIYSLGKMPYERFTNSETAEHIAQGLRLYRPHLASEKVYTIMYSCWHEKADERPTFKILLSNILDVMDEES
Chain of NT-3 growth factor receptor (Q16288 whole entry): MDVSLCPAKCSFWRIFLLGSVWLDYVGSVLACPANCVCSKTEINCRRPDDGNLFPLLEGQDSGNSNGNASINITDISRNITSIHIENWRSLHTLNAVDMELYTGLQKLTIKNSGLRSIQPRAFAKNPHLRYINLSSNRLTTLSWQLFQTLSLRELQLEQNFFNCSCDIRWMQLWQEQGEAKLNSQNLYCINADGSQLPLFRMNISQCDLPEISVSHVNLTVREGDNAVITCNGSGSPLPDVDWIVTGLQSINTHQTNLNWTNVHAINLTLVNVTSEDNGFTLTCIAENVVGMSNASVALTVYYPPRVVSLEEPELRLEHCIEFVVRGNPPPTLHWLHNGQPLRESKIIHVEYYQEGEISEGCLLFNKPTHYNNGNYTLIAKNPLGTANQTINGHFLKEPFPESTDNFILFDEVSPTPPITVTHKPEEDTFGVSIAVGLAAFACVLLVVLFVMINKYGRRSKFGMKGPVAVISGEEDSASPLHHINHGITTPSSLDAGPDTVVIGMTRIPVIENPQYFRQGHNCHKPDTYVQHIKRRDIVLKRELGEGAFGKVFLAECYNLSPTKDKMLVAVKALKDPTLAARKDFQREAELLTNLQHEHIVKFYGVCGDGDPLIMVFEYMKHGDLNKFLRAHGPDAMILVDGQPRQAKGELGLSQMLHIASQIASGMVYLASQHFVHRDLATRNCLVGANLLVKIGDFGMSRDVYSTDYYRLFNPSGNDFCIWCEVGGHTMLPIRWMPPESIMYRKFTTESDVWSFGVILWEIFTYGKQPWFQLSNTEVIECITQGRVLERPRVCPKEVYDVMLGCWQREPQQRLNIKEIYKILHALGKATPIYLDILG
Chain of Interleukin-1 receptor-associated kinase 1 (P51617 whole entry): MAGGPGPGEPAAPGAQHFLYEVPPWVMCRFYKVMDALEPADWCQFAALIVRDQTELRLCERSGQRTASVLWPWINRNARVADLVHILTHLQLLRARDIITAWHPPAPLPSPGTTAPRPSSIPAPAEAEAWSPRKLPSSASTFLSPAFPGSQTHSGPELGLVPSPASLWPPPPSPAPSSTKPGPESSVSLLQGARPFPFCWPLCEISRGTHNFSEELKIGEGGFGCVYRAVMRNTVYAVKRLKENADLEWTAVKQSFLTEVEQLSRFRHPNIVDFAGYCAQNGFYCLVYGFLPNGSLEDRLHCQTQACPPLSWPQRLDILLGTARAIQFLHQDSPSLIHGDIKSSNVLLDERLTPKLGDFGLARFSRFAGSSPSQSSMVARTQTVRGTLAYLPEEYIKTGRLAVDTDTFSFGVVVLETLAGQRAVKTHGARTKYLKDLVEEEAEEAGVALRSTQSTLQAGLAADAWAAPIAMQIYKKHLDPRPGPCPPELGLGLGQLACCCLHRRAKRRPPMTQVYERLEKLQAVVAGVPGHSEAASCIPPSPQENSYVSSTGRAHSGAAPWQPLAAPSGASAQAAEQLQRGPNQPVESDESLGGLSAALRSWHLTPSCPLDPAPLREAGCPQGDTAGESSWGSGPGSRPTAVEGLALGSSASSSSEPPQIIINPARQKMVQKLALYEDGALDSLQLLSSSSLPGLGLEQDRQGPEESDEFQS

As for `Cc1ccc2nc(Nc3cnn(C4CCN(C)CC4)c3)nc(OC3(C)CC3)c2n1`, the IC50 (commonly the concentration needed to halve the response being measured) in [1] turned out to be 3 nM; in data set [2], 100 nM; in data set [11], 16 nM. Further, the log distribution coefficient (logD) (commonly the decadic logarithm of the distribution of all forms, ionised or not, between an organic phase and buffer at a given pH) in data set [3] came to 1.8. Besides, the values for the microsomal CLint in data set [4] and in data set [8] were 18 µL/min/mg and below 0.5 µL/min/mg, respectively. The hepatocyte CLint in data set [5] was found to be 1.9 µL/min/1e6 cells. For the same molecule, the Papp A→B (commonly how fast a substance crosses the layer from the apical side) at 6 h in data set [6] was 20 ×10⁻⁶ cm/s. Also, the efflux ratio (usually the permeability from basolateral to apical divided by that in the opposite direction, in the common usage) at 6 h in data set [7] is 2.5. For the same molecule, the clearance (usually the volume of plasma or blood freed of the substance per unit of time) in data set [9] stood at 5 mL/min/kg. In [10], the LBF was found to be 20%. The Ratio IC50 in the data set filed under Homo sapiens [12] was above 30.
Take `COC(=O)N1CCN([C@H]2CC[C@H](Nc3nc(Nc4cnn(C)c4)nc4ccc(CC#N)nc34)CC2)CC1`: the IC50 stood at 3 nM in data set [1] and 170 nM in data set [2]. Besides, the Papp A→B at 6 h in data set [6] amounted to 9.3 ×10⁻⁶ cm/s. Moreover, the efflux ratio at 6 h in [7] is 24. For the same molecule, in data set [9], the clearance was 13 mL/min/kg. Besides, the LBF in [10] is 70%.
In the case of `CN1CCC(n2cc(Nc3nc(OC4(C)CC4)c4nc(-c5cnn(C)c5)ccc4n3)cn2)CC1`, the IC50 in [1] came out at 3 nM; in data set [2] it was 210 nM; in data set [11] it was 170 nM. In data set [3], this molecule came in with a logD of 2.2. Besides, in [4], the microsomal CLint turned out to be 15 µL/min/mg. Further, the hepatocyte CLint in data set [5] was found to be 1.7 µL/min/1e6 cells. Further, the Ratio IC50 in the data set listed under Homo sapiens [12] is below 5.
In the case of `CC(=O)N1CCC(n2cc(Nc3nc(OC4CCOCC4)c4nc(C)ccc4n3)cn2)CC1`, the IC50 in [1] came out at 3 nM; in data set [2], 71 nM; in data set [11] it was 30 nM; in [13], 20 nM. In data set [3], this molecule yielded a logD of 2.3. Further, the microsomal CLint in data set [4] turned out to be 33 µL/min/mg. Moreover, in data set [5], the hepatocyte CLint is 4.6 µL/min/1e6 cells. The Papp A→B at 6 h in [6] was 45 ×10⁻⁶ cm/s. In addition, in data set [7], the efflux ratio at 6 h was 2.6.
In the case of `CN1CCC(n2cc(Nc3nc(OC4(C)CC4)c4nc(-c5cncnc5)ccc4n3)cn2)CC1`, the IC50 is 0.6 nM in data set [1]; 24 nM in data set [2]; 2 nM in [14]; 44 nM in data set [15]; 1200 nM in data set [11]; 18 nM in [16]. For the same molecule, the figures for the IC50 in data set [13], in [17] and in data set [18] were 19 nM, 82 nM and 36 nM, respectively. In addition, in data set [3], the logD was found to be 2. The microsomal CLint was determined as 96 µL/min/mg in data set [4] and 191 µL/min/mg in [8]. For the same molecule, the hepatocyte CLint in [5] came to 110 µL/min/1e6 cells. Moreover, the Ratio IC50 is 3 in the data set listed under Homo sapiens [19]; 70 in the data set filed under Homo sapiens [20]; above 1000 in the data set listed under Homo sapiens [12]; 30 in the data set listed under Homo sapiens [21]; 32 in the data set listed under Homo sapiens [22]; 140 in the data set filed under Homo sapiens [23]. Moreover, the Ratio IC50 in the data set listed under Homo sapiens [24] is 60.
